Assay results reported in patent publication EP4603105A1, “PHARMACEUTICAL COMPOSITION CONTAINING CYCLIC COMPOUND HAVING SELECTIVE KRAS INHIBITORY EFFECT AGAINST HRAS AND NRAS” (CHUGAI SEIYAKU KABUSHIKI KAISHA, priority 2022, dated 2024).
Where a SMILES comes first, the peptide text is derived from it. Bridges are numbered along the chain shown (N, C = ends). [ ]: non-standard residue; d: D form. hPhe(3-Cl-4-CF3) = N[C@@H](CCc1ccc(C(F)(F)F)c(Cl)c1)C(=O)O; NPrPhe(4-CF3) = CCCN[C@@H](Cc1ccc(C(F)(F)F)cc1)C(=O)O; NMeGly(cPent) = CN[C@H](C(=O)O)C1CCCC1; Pro(4,4-F2) = O=C(O)[C@@H]1CC(F)(F)CN1; Hyp = O=C(O)[C@@H]1C[C@@H](O)CN1; NMeD = CN[C@@H](CC(=O)O)C(=O)O; NMeL = CN[C@@H](CC(C)C)C(=O)O; Ac5c = NC1(C(=O)O)CCCC1; Aze = O=C(O)[C@@H]1CCN1; Ac4c = NC1(C(=O)O)CCC1; Sar = CNCC(=O)O

Tests used:
[1] = tested on: human lung cancer strain NCI-H441; type: cell-based
Summary of the method: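 Step one: dispense the test compound in serial DMSO dilutions. Step three: add the reagent and measure […].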

[2] = target: GDP-bound NRAS wild-type protein (Homo sapiens, UniProt P01111); assay: Binding to NRAS by surface plasmon resonance (SPR), KD and KD ratio to KRAS
Summary of the method: (§1)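 Running buffer contained 10 µM GDP and 10 mM MgCl2 to keep RAS in the GDP state, with 4% DMSO at pH 7.4. Compounds were flowed at 100 µL/min in 75 s steps of rising concentration over captured biotin-Avi RAS at 30°C. Sensorgrams were fitted 1:1 for KD.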

HRAS wild-type protein = HRAS wild-type protein (Homo sapiens, UniProt P01112); assay: Binding to HRAS by surface plasmon resonance (SPR), KD and KD ratio to KRAS
Summary of the method: as §1

[3] = ratio of KD for GDP-bound NRAS wild-type protein to KD for KRAS
[4] = ratio of KD for HRAS wild-type protein to KD for KRAS
[5] = ratio of the KD value with respect to GDP-bound NRAS wild-type protein to the KD value with respect to KRAS
[6] = ratio of the KD value with respect to HRAS wild-type protein to the KD value with respect to KRAS

GDP-bound NRAS wild-type protein, sequence (P01111 whole entry): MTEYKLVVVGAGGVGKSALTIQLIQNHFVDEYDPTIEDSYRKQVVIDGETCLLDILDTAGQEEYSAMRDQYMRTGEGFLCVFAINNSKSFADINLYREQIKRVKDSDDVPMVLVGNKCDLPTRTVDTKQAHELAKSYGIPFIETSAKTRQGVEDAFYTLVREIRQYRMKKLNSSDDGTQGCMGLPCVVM
HRAS wild-type protein, sequence (P01112 whole entry): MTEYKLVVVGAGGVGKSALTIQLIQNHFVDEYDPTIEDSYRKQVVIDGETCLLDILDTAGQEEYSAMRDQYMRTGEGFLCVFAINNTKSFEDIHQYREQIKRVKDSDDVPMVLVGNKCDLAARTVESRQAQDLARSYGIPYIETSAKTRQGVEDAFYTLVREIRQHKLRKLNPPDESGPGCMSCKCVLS

Compound | IC50 [1] [nM] | NRAS /KRAS [2, 3] | HRAS /KRAS (HRAS wild-type protein; [4]) | NRAS /KRAS [2, 5] | HRAS /KRAS (HRAS wild-type protein; [6]) | NRAS /KRAS ([2]; ratio of KD value for GDP-bound NRAS wild-type protein to KD value for KRAS (SPR)) | HRAS /KRAS (HRAS wild-type protein; ratio of KD value for HRAS wild-type protein to KD value for KRAS (SPR))
CC[C@H](C)[C@@H]1NC(=O)[C@H](COC)N(C)C(=O)C[C@@H](C(=O)N2CCOCC2)N(C)C(=O)[C@H](C2CCCC2)N(C)C(=O)C2(CCC2)NC(=O)[C@@H]2C[C@H](OC)CN2C(=O)[C@H](CCc2cc(F)c(C(F)(F)F)c(F)c2)NC(=O)CN(C)C(=O)[C@H](Cc2ccc(C(F)(F)F)cc2)N2CCCCC[C@@H](C2=O)N(C)C(=O)CN(C)C1=O [PP0836] | 360 | B (a compound having 3 or more and less than 10 is denoted as B) | B (a compound having 3 or more and less than 10 is denoted as B) |  |  |  | 
CCO[C@@H]1C[C@H]2C(=O)NC3(CC(C)(C)C3)C(=O)N(C)[C@@H](C(CC)CC)C(=O)N(C)[C@H](C(=O)N(C)C)CC(=O)N(C)[C@H]3CCCCCc4ccc(cc4)C[C@@H](C(=O)N(C)CC(=O)N[C@@H](CCc4ccc(C(F)(F)F)c(OC)c4)C(=O)N2C1)N1CC/C=C\C[C@@H](C1=O)N(C)C(=O)CN(C)C(=O)[C@H]([C@@H](C)CC)NC3=O [PP3035] | 4.2 | AA (a compound having 20 or more is denoted as AA) | A (a compound having 10 or more and less than 20 is denoted as A) |  |  |  | 
CC[C@H](C)[C@@H]1NC(=O)[C@H](CC(C)C)N(C)C(=O)C[C@@H](C(=O)N2CCOCC2)N(C)C(=O)[C@H](C2CCCC2)N(C)C(=O)C2(CCCC2)NC(=O)[C@@H]2C[C@H](O)CN2C(=O)[C@H](CCc2cc(F)c(C(F)(F)F)c(F)c2)NC(=O)CN(C)C(=O)[C@H](Cc2ccc(C(F)(F)F)cc2)N2CCCC[C@@H](C2=O)N(C)C(=O)CN(C)C1=O [PP0556] | 21 |  |  | C (A compound having a KD ratio of 0.1 or more and less than 3 is denoted as C) | B (a compound having 3 or more and less than 10 is denoted as B) |  | 
CCCN1C(=O)[C@@H]2CCN2C(=O)CN(C)C(=O)[C@H]([C@@H](C)CC)NC(=O)[C@H](CC(C)C)N(C)C(=O)C[C@@H](C(=O)N(C)C)N(C)C(=O)[C@H](C2CCCC2)N(C)C(=O)C2(CCCC2)NC(=O)[C@@H]2CC(F)(F)CN2C(=O)[C@H](CCc2ccc(C(F)(F)F)c(Cl)c2)NC(=O)CN(C)C(=O)[C@@H]1Cc1ccc(C(F)(F)F)cc1 [PP0442] ([NMeL]I[Sar][Aze][NPrPhe(4-CF3)][Sar][hPhe(3-Cl-4-CF3)][Pro(4,4-F2)][Ac5c][NMeGly(cPent)][NMeD]-NMe2; lactam N-11) | 0.8 |  |  | C (A compound having a KD ratio of 0.1 or more and less than 3 is denoted as C) | C (A compound having a KD ratio of 0.1 or more and less than 3 is denoted as C) |  | 
CCCN1C(=O)CN(C)C(=O)CN(C)C(=O)[C@H]([C@@H](C)CC)NC(=O)[C@H](CC(C)C)N(C)C(=O)C[C@@H](C(=O)N(C)C)NC(=O)[C@H](C2CCCC2)N(C)C(=O)C2(CCC2)NC(=O)[C@@H]2C[C@@H](OCC)CN2C(=O)[C@H](CCc2ccc(C(F)(F)F)c(Cl)c2)NC(=O)CN(C)C(=O)[C@@H]1Cc1ccc(C(F)(F)F)cc1 [PP0360] ([NMeL]I[Sar][Sar][NPrPhe(4-CF3)][Sar][hPhe(3-Cl-4-CF3)][Hyp](Et)[Ac4c][NMeGly(cPent)]D-NMe2; lactam N-11) | 18 | B (a compound having 3 or more and less than 10 is denoted as B) | C (A compound having a KD ratio of 0.1 or more and less than 3 is denoted as C) |  |  |  | 
CCO[C@@H]1C[C@H]2C(=O)NC3(CC(C)(C)C3)C(=O)N(C)[C@@H](C3CCCC3)C(=O)N(C)[C@H](C(=O)N(C)C)CC(=O)N(C)[C@@H](CC)C(=O)N[C@@H]([C@@H](C)CC)C(=O)N(C)CC(=O)N(C)[C@H]3C/C=C\CCN(C3=O)[C@@H](Cc3ccc(C(F)F)cc3)C(=O)N(C)CC(=O)N[C@@H](CCc3cc(F)c(C(F)(F)F)c(F)c3)C(=O)N2C1 [PP2049] | 6.1 |  |  | A (a compound having 10 or more and less than 20 is denoted as A) | B (a compound having 3 or more and less than 10 is denoted as B) |  | 
CCCN1C(=O)CN(C)C(=O)CN(C)C(=O)[C@H]([C@@H](C)CC)NC(=O)[C@@H]2CCCCCOc3ccc(cc3)C[C@H]1C(=O)N(C)CC(=O)N[C@@H](CCc1cc(F)c(C(F)(F)F)c(F)c1)C(=O)N1C[C@H](OCC)C[C@H]1C(=O)NC1(CCCC1)C(=O)N(C)[C@@H](C1CCCC1)C(=O)N(C)[C@H](C(=O)N(C)C)CC(=O)N2C [PP0895] | 2.2 | C (A compound having a KD ratio of 0.1 or more and less than 3 is denoted as C) | C (A compound having a KD ratio of 0.1 or more and less than 3 is denoted as C) |  |  |  | 
CCC[C@H]1C(=O)N[C@@H]([C@@H](C)CC)C(=O)N(C)CC(=O)N(C)[C@H]2C/C=C\CCN(C2=O)[C@@H](Cc2ccc(C(F)(F)F)cc2)C(=O)N(C)CC(=O)N[C@@H](CCc2cc(F)c(C(F)(F)F)c(F)c2)C(=O)N(C)[C@@H](C)C(=O)NC2(CC(C)(C)C2)C(=O)N(C)[C@@H](C2CCCC2)C(=O)N(C)[C@H](C(=O)N(C)C)CC(=O)N1C [PP1934] | 68.5 |  |  | A (a compound having 10 or more and less than 20 is denoted as A) | A (a compound having 10 or more and less than 20 is denoted as A) |  | 
CCC[C@H]1C(=O)N[C@@H]([C@@H](C)CC)C(=O)N(C)CC(=O)N(C)[C@H]2C/C=C\CCN(C2=O)[C@@H](Cc2ccc(C)cc2)C(=O)N(C)CC(=O)N[C@@H](CCc2ccc(CC)c(Cl)c2)C(=O)N2C[C@H](OCC)C[C@H]2C(=O)NC2(CC(C)(C)C2)C(=O)N(C)[C@@H](C2CCCC2)C(=O)N(C)[C@H](C(=O)N(C)C)CC(=O)N1C [PP2778] | 22.3 | A (a compound having 10 or more and less than 20 is denoted as A) | A (a compound having 10 or more and less than 20 is denoted as A) |  |  |  | 
CCCN1C(=O)[C@@H]2CCN2C(=O)CN(C)C(=O)[C@H]([C@@H](C)CC)NC(=O)[C@H](CC(C)C)N(C)C(=O)C[C@@H](C(=O)N(C)C)NC(=O)[C@H](C2CCCC2)N(C)C(=O)C2(CCC2)NC(=O)[C@@H]2CCCN2C(=O)[C@H](CCc2ccc(C(F)(F)F)c(Cl)c2)NC(=O)CN(C)C(=O)[C@@H]1Cc1ccc(C(F)(F)F)cc1 [PP0386] ([NMeL]I[Sar][Aze][NPrPhe(4-CF3)][Sar][hPhe(3-Cl-4-CF3)]P[Ac4c][NMeGly(cPent)]D-NMe2; lactam N-11) | 29.6 | C (A compound having a KD ratio of 0.1 or more and less than 3 is denoted as C) | B (a compound having 3 or more and less than 10 is denoted as B) |  |  |  | 
CCCOC[C@H]1C(=O)N[C@@H]([C@@H](C)CC)C(=O)N(C)CC(=O)N(C)[C@H]2C/C=C\CCN(C2=O)[C@@H](Cc2ccc(C(F)(F)F)cc2)C(=O)N(C)CC(=O)N[C@@H](CCc2cc(F)c(C(F)(F)F)c(F)c2)C(=O)N2C[C@H](OCC)C[C@H]2C(=O)NC2(CC(C)(C)C2)C(=O)N(C)[C@@H](C2CCCC2)C(=O)N(C)[C@H](C(=O)N(CC)CC)CC(=O)N1C [PP1575] | 11.1 |  |  |  |  | B (a compound having 3 or more and less than 10 is denoted as B) | B (a compound having 3 or more and less than 10 is denoted as B)
CCO[C@@H]1C[C@H]2C(=O)NC3(CCC3)C(=O)N(C)[C@@H](C3CCCC3)C(=O)N(C)[C@H](C(=O)N(C)C)CC(=O)N(C)[C@@H](CC)C(=O)N[C@@H]([C@@H](C)CC)C(=O)N(C)CC(=O)N(C)[C@H]3CCCCN(C3=O)[C@@H](Cc3ccc(C(F)(F)F)cc3)C(=O)N(C)CC(=O)N[C@@H](CCc3cc(Cl)c(Cl)c(Cl)c3)C(=O)N2C1 [PP0988] | 10.3 | C (A compound having a KD ratio of 0.1 or more and less than 3 is denoted as C) | B (a compound having 3 or more and less than 10 is denoted as B) |  |  |  | 
CCO[C@@H]1C[C@H]2C(=O)NC3(CC(C)(C)C3)C(=O)N(C)[C@@H](C(CC)CC)C(=O)N(C)[C@H](C(=O)N(C)C)CC(=O)N(C)[C@@H](CC3CC3)C(=O)N[C@@H]([C@@H](C)CC)C(=O)N(C)CC(=O)N(C)[C@H]3C/C=C\CCN(C3=O)[C@@H](Cc3ccc(C(F)(F)F)cc3)C(=O)N(C)CC(=O)N[C@@H](CCc3ccc(C(F)(F)F)c(Cl)c3)C(=O)N2C1 [PP2124] | 18.7 |  |  | AA (a compound having 20 or more is denoted as AA) | A (a compound having 10 or more and less than 20 is denoted as A) |  | 
CCC[C@H]1C(=O)N[C@@H]([C@@H](C)CC)C(=O)N(C)CC(=O)N(C)[C@H]2C/C=C\CCN(C2=O)[C@@H](Cc2ccc(C)cc2)C(=O)N(C)CC(=O)N[C@@H](CCc2cc(Cl)c3sccc3c2)C(=O)N2C[C@H](OCC)C[C@H]2C(=O)NC2(CC(C)(C)C2)C(=O)N(C)[C@@H](C(CC)CC)C(=O)N(C)[C@H](C(=O)N(C)C)CC(=O)N1C [PP2890] | 10.3 | AA (a compound having 20 or more is denoted as AA) | A (a compound having 10 or more and less than 20 is denoted as A) |  |  |  | 
CC[C@H](C)[C@@H]1NC(=O)[C@@H]2CCCCc3ccc(cc3)C[C@@H](C(=O)N(C)CC(=O)N[C@@H](CCc3ccc(C(F)(F)F)c(OC)c3)C(=O)N3C[C@H](OC(C)C)C[C@H]3C(=O)NC3(CC(C)(C)C3)C(=O)N(C)[C@@H](C3CCCC3)C(=O)N(C)[C@H](C(=O)N(C)CC)CC(=O)N2C)N2CC/C=C\C[C@@H](C2=O)N(C)C(=O)CN(C)C1=O [PP3078] | 2.3 | A (a compound having 10 or more and less than 20 is denoted as A) | B (a compound having 3 or more and less than 10 is denoted as B) |  |  |  | 
